Test results published in patent US10934294B2, “Substituted pyrazolo[3,4-d]pyrimidines as PDE9 inhibitors” (Merck Sharp & Dohme Corp., priority 2017, dated 2021).
Like-named read-outs stand apart in the source and are kept apart here.

Molecular target: Human PDE9 (PDE9A2) (Homo sapiens (Human), UniProt O76083)
Assay: PDE9 IMAP fluorescence polarization (FP) inhibition assay
Format: biochemical
[1] = apparent inhibition constant, FAM-cGMP substrate 50 nM, room temperature, read-out: PDE9 IMAP Ki
[2] = read-out: PDE9 IMAP Ki, apparent inhibition constant, FAM-cGMP substrate 50 nM, room temperature

Chain of Human PDE9 (PDE9A2) (O76083 other isoform, or with tags, fused parts or gaps): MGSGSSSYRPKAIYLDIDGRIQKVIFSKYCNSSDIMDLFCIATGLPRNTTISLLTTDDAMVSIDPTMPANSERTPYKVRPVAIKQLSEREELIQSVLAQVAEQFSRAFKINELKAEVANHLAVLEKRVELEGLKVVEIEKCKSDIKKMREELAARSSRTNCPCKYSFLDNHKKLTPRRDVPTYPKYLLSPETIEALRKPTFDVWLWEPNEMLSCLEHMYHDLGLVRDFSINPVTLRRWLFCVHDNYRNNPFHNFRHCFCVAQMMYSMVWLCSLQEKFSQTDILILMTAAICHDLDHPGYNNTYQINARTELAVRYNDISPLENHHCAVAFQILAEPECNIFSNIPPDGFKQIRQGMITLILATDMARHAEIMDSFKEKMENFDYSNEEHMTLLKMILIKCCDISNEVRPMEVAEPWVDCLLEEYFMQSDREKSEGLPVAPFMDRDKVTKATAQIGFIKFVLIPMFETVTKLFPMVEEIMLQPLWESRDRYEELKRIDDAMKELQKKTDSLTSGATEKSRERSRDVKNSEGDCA

CC(c1cncc(F)c1)n1nc(C#N)c2c(=O)[nH]c(C3CCC3c3ncccn3)nc21 (centres unmarked) [Example 66, 1-(1-(5-fluoropyridin-3-yl)ethyl)-4-oxo-6-(2-(pyrimidin-2-yl)cyclobutyl)-4,5-dihydro-1H-pyrazolo[3,4-d]pyrimidine-3-carbonitrile]
Ki [1]: > 67.5 nM

CC(C1CCOCC1)n1nc(C#N)c2c(=O)[nH]c(C3CCC3c3ncc(F)cn3)nc21 (centres unmarked) [Example 85, 6-(2-(5-fluoropyrimidin-2-yl)cyclobutyl)-4-oxo-1-(1-(tetrahydro-2H-pyran-4-yl)ethyl)-4,5-dihydro-1H-pyrazolo[3,4-d]pyrimidine-3-carbonitrile]
Ki [1]: > 607 nM

CC(c1cncc(F)c1)n1nc(C#N)c2c(=O)[nH]c(C3CCC3c3ncccn3)nc21 (single isomer, unassigned) [Example 64, 1-(1-(5-fluoropyridin-3-yl)ethyl)-4-oxo-6-(2-(pyrimidin-2-yl)cyclobutyl)-4,5-dihydro-1H-pyrazolo[3,4-d]pyrimidine-3-carbonitrile]
Ki: > 67.5 nM

CC(c1cnn(C)c1)n1nc(C#N)c2c(=O)[nH]c(C3CCC3c3ncccn3)nc21 (single isomer, unassigned) [Example 69, 1-(1-(1-methyl-1H-pyrazol-4-yl)ethyl)-4-oxo-6-(2-(pyrimidin-2-yl)cyclobutyl)-4,5-dihydro-1H-pyrazolo[3,4-d]pyrimidine-3-carbonitrile]
Ki [2]: > 67.5 nM

CC(c1cnn(C)c1)n1nc(C#N)c2c(=O)[nH]c(C3CCC3c3ncccn3)nc21 (single isomer, unassigned) [Example 68, 1-(1-(1-methyl-1H-pyrazol-4-yl)ethyl)-4-oxo-6-(2-(pyrimidin-2-yl)cyclobutyl)-4,5-dihydro-1H-pyrazolo[3,4-d]pyrimidine-3-carbonitrile]
Ki: > 67.5 nM

CC(c1cnn(C)c1)n1nc(C#N)c2c(=O)[nH]c(C3CCC3c3ncccn3)nc21 (centres unmarked) [Example 71, 1-(1-(1-methyl-1H-pyrazol-4-yl)ethyl)-4-oxo-6-(2-(pyrimidin-2-yl)cyclobutyl)-4,5-dihydro-1H-pyrazolo[3,4-d]pyrimidine-3-carbonitrile]
Ki: > 67.5 nM

CC(c1cncc(F)c1)n1nc(C#N)c2c(=O)[nH]c(C3CCC3c3ncccn3)nc21 (single isomer, unassigned) [Example 65, 1-(1-(5-fluoropyridin-3-yl)ethyl)-4-oxo-6-(2-(pyrimidin-2-yl)cyclobutyl)-4,5-dihydro-1H-pyrazolo[3,4-d]pyrimidine-3-carbonitrile]
Ki [2]: > 67.5 nM

C[C@H](c1ccc(C(F)(F)F)nc1)n1nc(C#N)c2c(=O)[nH]c([C@@H]3CC[C@H]3c3nc(C(F)F)cc(C(F)F)n3)nc21 [Example 116, 6-((1R,2R)-2-(4,6-bis(difluoromethyl)pyrimidin-2-yl)cyclobutyl)-4-oxo-1-((R)-1-(6-(trifluoromethyl)-pyridin-3-yl)ethyl)-4,5-dihydro-1H-pyrazolo[3,4-d]pyrimidine-3-carbonitrile]
Ki [1]: 8.3 nM
